Like-named read-outs stand apart in the source and are kept apart here.
Key:
Type in all cases: in vivo
[1] = test system: Green Peach Aphid (Myzus persicae, MYZUPE); assay: Bioassays on Green Peach Aphid (GPA), foliar spray on cabbage seedlings; settings: 72 h
Outline: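 Percent control (Abbott-corrected versus solvent-sprayed plants) comes from live-aphid counts three days after treatment at about 25° C. Test solution at 200 ppm was sprayed to runoff onto both leaf surfaces of cabbage seedlings infested a day earlier with 20-50 aphids; four replicate pots.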

[2] = test system: Cabbage Looper (Trichoplusia ni, TRIPNI); assay: Bioassays on Cabbage Looper (CL), 128-well diet tray assay; settings: Trichoplusia ni
Outline: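 Diet tray, 2nd instar, 1–5 larvae/well; 50 μg/cm^2 compound surface-applied (acetone:water 90:10), dried; 8 wells/treatment; 25° C, 14:10 L:D, 5–7 d; % mortality, mean of 8 wells.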

[3] = test system: Yellow Fever Mosquito (Aedes aegypti, AEDSAE); settings: for YFM rating: Table ABC / ABC-DP rating
Outline: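 Compounds from 4000 ppm DMSO stocks were diluted in 90:10 water/acetone and dispensed into wells, then infested with about 1-day-old larvae in liver-powder water. Covered plates were held at room temperature for 3 days and each well was scored for mortality against a rating scale; six replicate plates per compound.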

[4] = test system: Beet Armyworm (Spodoptera exigua, LAPHEG); assay: Bioassays on Beet Armyworm (BAW), 128-well diet tray assay; settings: Spodoptera exigua
Outline: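 Diet-overlay assay: 50 μg/cm^2 compound applied in 90:10 acetone-water to artificial diet, allowed to dry, then infested with 1–5 L2 larvae/well; 8 wells/compound; covered, vented; 25° C., 14:10 L:D, 5–7 d; % mortality per well, averaged.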

[5] = Green Peach Aphid, rating class, read-out: GPA
[6] = Cabbage Looper, rating class, read-out: CL
[7] = Yellow Fever Mosquito, rating class
[8] = Beet Armyworm, rating class, read-out: BAW
[9] = Green Peach Aphid, Table ABC / ABC-DP rating, read-out: GPA rating
[10] = Cabbage Looper, Table ABC / ABC-DP rating, read-out: CL rating
[11] = Beet Armyworm, Table ABC / ABC-DP rating, read-out: BAW rating

With `CCCOC(C)C(=O)Nc1c(F)ccc(NC(=O)c2cc(NC(=O)[C@H]3[C@H](c4ccc(F)c(C(F)(F)F)c4)C3(Cl)Cl)ccc2Cl)c1F` (stereo partly drawn) [F1739, 2-Chloro-5-((1R,3R)-2,2-dichloro-3-(4-fluoro-3-(trifluoromethyl)phenyl)cyclopropane-1-carboxamido)-N-(2,4-difluoro-3-(2-propoxypropanamido)phenyl)benzamide] the pest or weed control at 200 µg/mL [1, 5] was 0 to 80%, the pest or weed control at 50 µg/cm2 [2, 6] was 50 to 100% and the YFM [3, 7] was “A (80–100)”. It also gave a pest or weed control at 50 µg/cm2 [4, 8] of 50 to 100%.
With `O=C(CNC(=O)c1cc(NC(=O)[C@H]2[C@H](c3cc(Cl)cc(Cl)c3)C2(Cl)Cl)ccc1Cl)NCC(F)(F)F` (relative stereo) [F2078, trans-2-Chloro-5-(2,2-dichloro-3-(3,5-dichlorophenyl)cyclopropane-1-carboxamido)-N-(2-oxo-2-(2,2,2-trifluoroethylamino)ethyl)benzamide] the pest or weed control at 200 µg/mL [1, 9] was 80 to 100%, the pest or weed control at 50 µg/cm2 [2, 10] was 50 to 100% and the YFM rating ([3]; Yellow Fever Mosquito) was “A (80–100)”. The pest or weed control at 50 µg/cm2 [4, 11] was 50 to 100%.
`CC(=O)Nc1c(F)ccc(NC(=O)c2cc(NC(=O)[C@H]3[C@H](c4ccc(F)c(Cl)c4)C3(Cl)Cl)ccc2Cl)c1F` [F1694, N-(3-Acetamido-2,4-difluorophenyl)-2-chloro-5-((1R,3R)-2,2-dichloro-3-(3-chloro-4-fluorophenyl)cyclopropane-1-carboxamido)benzamide] was tested, and the pest or weed control at 200 µg/mL [1, 5] was 80 to 100%, the pest or weed control at 50 µg/cm2 [2, 6] was 50 to 100% and the YFM [3, 7] was “A (80–100)”. The pest or weed control at 50 µg/cm2 [4, 8] was 50 to 100%.
With `CCOC(C)C(=O)Nc1c(F)ccc(NC(=O)c2cc(NC(=O)[C@H]3[C@H](c4cccc(C(F)(F)F)c4)C3(Cl)Cl)ccc2Cl)c1F` (stereo partly drawn) [F1737, 2-Chloro-5-((1R,3R)-2,2-dichloro-3-(3-(trifluoromethyl)phenyl)cyclopropane-1-carboxamido)-N-(3-(2-ethoxypropanamido)-2,4-difluorophenyl)benzamide] the pest or weed control at 200 µg/mL [1, 5] was 0 to 80%, the pest or weed control at 50 µg/cm2 [2, 6] was 50 to 100% and the YFM [3, 7] was “A (80–100)”. It also gave a pest or weed control at 50 µg/cm2 [4, 8] of 50 to 100%.
`CN(C(=O)C(F)(F)C(F)(F)F)c1c(F)ccc(NC(=O)c2cc(NC(=O)[C@H]3[C@H](c4ccc(Cl)c(Cl)c4)C3(Cl)Cl)ccc2Cl)c1F` [F1615, 2-Chloro-5-((1R,3R)-2,2-dichloro-3-(3,4-dichlorophenyl)cyclopropane-1-carboxamido)-N-(2,4-difluoro-3-(2,2,3,3,3-pentafluoro-N-methylpropanamido)phenyl)benzamide] was tested, and the pest or weed control at 200 µg/mL [1, 5] was 0 to 80%, the pest or weed control at 50 µg/cm2 [2, 6] was 50 to 100% and the YFM [3, 7] was “A (80–100)”. It also gave a pest or weed control at 50 µg/cm2 [4, 8] of 50 to 100%.
For `CC(C)(C)OC(=O)Nc1cc(NC(=O)c2cc(NC(=O)[C@H]3[C@H](c4ccc(F)c(C(F)(F)F)c4)C3(Cl)Cl)ccc2Cl)c(F)c(F)c1F` [F1736, tert-Butyl (5-(2-chloro-5-((1R,3R)-2,2-dichloro-3-(4-fluoro-3-(trifluoromethyl)phenyl)cyclopropane-1-carboxamido)benzamido)-2,3,4-trifluorophenyl)carbamate], the pest or weed control at 200 µg/mL [1, 5] was 0 to 80%, the pest or weed control at 50 µg/cm2 [2, 6] was 50 to 100% and the YFM [3, 7] was “A (80–100)”. For the same compound, the pest or weed control at 50 µg/cm2 [4, 8] was 50 to 100%.
`O=C(Nc1ccc(F)c(NC(=O)C(F)(F)F)c1F)c1cc(NC(=O)[C@H]2[C@H](c3ccc(F)c(C(F)(F)F)c3)C2(Cl)Cl)ccc1F` [F1529, 5-((1R,3R)-2,2-Dichloro-3-(4-fluoro-3-(trifluoromethyl)phenyl)cyclopropane-1-carboxamido)-N-(2,4-difluoro-3-(2,2,2-trifluoroacetamido)phenyl)-2-fluorobenzamide] was tested, and the pest or weed control at 200 µg/mL [1, 5] was 0 to 80%, the pest or weed control at 50 µg/cm2 [2, 6] was 50 to 100% and the YFM [3, 7] was “A (80–100)”. The pest or weed control at 50 µg/cm2 [4, 8] was 50 to 100%.
With `CCC(=O)Nc1c(F)ccc(NC(=O)c2cc(NC(=O)[C@H]3[C@H](c4ccc(F)c(Cl)c4)C3(Cl)Cl)ccc2Cl)c1F` [F1704, 2-Chloro-5-((1R,3R)-2,2-dichloro-3-(3-chloro-4-fluorophenyl)cyclopropane-1-carboxamido)-N-(2,4-difluoro-3-propionamidophenyl)benzamide] the pest or weed control at 200 µg/mL [1, 5] was 80 to 100%, the pest or weed control at 50 µg/cm2 [2, 6] was 50 to 100% and the YFM [3, 7] was “A (80–100)”. For the same compound, the pest or weed control at 50 µg/cm2 [4, 8] was 50 to 100%.
In the case of `O=C(Nc1ccc(F)cc1)c1c(Cl)ccc(NC(=O)[C@H]2[C@H](c3ccc(F)c(Cl)c3)C2(Cl)Cl)c1F` [F1465, 6-chloro-3-((1R,3R)-2,2-dichloro-3-(3-chloro-4-fluorophenyl)cyclopropane-1-carboxamido)-2-fluoro-N-(4-fluorophenyl)benzamide], the pest or weed control at 200 µg/mL [1, 5] is reported as 80 to 100%, the pest or weed control at 50 µg/cm2 [2, 6] is reported as 50 to 100% and the YFM [3, 7] is reported as “A (80–100)”. The pest or weed control at 50 µg/cm2 [4, 8] was 50 to 100%.
`CC(=O)Nc1cc(NC(=O)c2cc(NC(=O)[C@H]3[C@H](c4ccc(Cl)c(Cl)c4)C3(Cl)Cl)ccc2Cl)c(F)cc1F` [F1246, N-(5-Acetamido-2,4-difluorophenyl)-2-Chloro-5-((1R,3R)-2,2-dichloro-3-(3,4-dichlorophenyl)cyclopropane-1-carboxamido)benzamide] was tested, and the pest or weed control at 200 µg/mL ([1]; Table ABC: Biological Results, species GPA, read-out: GPA) was 80 to 100%, the pest or weed control at 50 µg/cm2 ([2]; Table ABC: Biological Results, species CL, read-out: CL) was 50 to 100% and the YFM ([3]; Table ABC: Biological Results, species YFM) was “A (80–100)”. The pest or weed control at 50 µg/cm2 ([4]; Table ABC: Biological Results, species BAW, read-out: BAW) was 50 to 100%.
`Nc1cc(NC(=O)c2cc(NC(=O)[C@H]3[C@H](c4ccc(F)c(C(F)(F)F)c4)C3(Cl)Cl)ccc2Cl)c(F)c(F)c1F` [F1740, N-(5-Amino-2,3,4-trifluorophenyl)-2-chloro-5-((1R,3R)-2,2-dichloro-3-(4-fluoro-3-(trifluoromethyl)phenyl)cyclopropane-1-carboxamido)benzamide] was tested, and the pest or weed control at 200 µg/mL [1, 5] was 80 to 100%, the pest or weed control at 50 µg/cm2 [2, 6] was 50 to 100% and the YFM [3, 7] was “A (80–100)”. For the same compound, the pest or weed control at 50 µg/cm2 [4, 8] was 50 to 100%.
For `O=C(Nc1ccc(F)c(NC(=O)C2CCCO2)c1F)c1cc(NC(=O)[C@H]2[C@H](c3ccc(F)c(Cl)c3)C2(Cl)Cl)ccc1Cl` (stereo partly drawn) [F1699, N-(3-(2-Chloro-5-((1R,3R)-2,2-dichloro-3-(3-chloro-4-fluorophenyl)cyclopropane-1-carboxamido)benzamido)-2,6-difluorophenyl)tetrahydrofuran-2-carboxamide], the pest or weed control at 200 µg/mL [1, 5] was 0 to 80%, the pest or weed control at 50 µg/cm2 [2, 6] was 50 to 100% and the YFM [3, 7] was “B (More than 0 – Less than 80)”. For the same compound, the pest or weed control at 50 µg/cm2 [4, 8] was 50 to 100%.
`O=C(Cc1ccccc1)Nc1c(F)ccc(NC(=O)c2cc(NC(=O)[C@H]3[C@H](c4ccc(Cl)c(Cl)c4)C3(Cl)Cl)ccc2Cl)c1F` [F1673, 2-Chloro-5-((1R,3R)-2,2-dichloro-3-(3,4-dichlorophenyl)cyclopropane-1-carboxamido)-N-(2,4-difluoro-3-(2-phenylacetamido)phenyl)benzamide] was tested, and the pest or weed control at 200 µg/mL [1, 5] was 0 to 80%, the pest or weed control at 50 µg/cm2 [2, 6] was 50 to 100% and the YFM [3, 7] was “B (More than 0 – Less than 80)”. For the same compound, the pest or weed control at 50 µg/cm2 [4, 8] was 50 to 100%.
For `O=C(CCCNC(=O)c1cc(NC(=O)[C@H]2[C@H](c3cc(Cl)cc(Cl)c3)C2(Cl)Cl)ccc1Cl)NCC(F)(F)F` (relative stereo) [F2080, trans-2-Chloro-5-(2,2-dichloro-3-(3,5-dichlorophenyl)cyclopropane-1-carboxamido)-N-(4-oxo-4-(2,2,2-trifluoroethylamino)butyl)benzamide], the pest or weed control at 200 µg/mL [1, 9] was 0 to 80%, the pest or weed control at 50 µg/cm2 [2, 10] was 50 to 100% and the YFM rating ([3]; Yellow Fever Mosquito) was “B (More than 0 – Less than 80)”. The pest or weed control at 50 µg/cm2 [4, 11] was 50 to 100%.
`CC(=O)Nc1ccc(F)c(NC(=O)c2cc(NC(=O)[C@H]3[C@H](c4cc(Cl)cc(Cl)c4)C3(Cl)Cl)ccc2Cl)c1` (relative stereo) [F1635, trans-N-(5-Acetamido-2-fluorophenyl)-2-chloro-5-(2,2-dichloro-3-(3,5-dichlorophenyl)cyclopropane-1-carboxamido)benzamide] was tested, and the pest or weed control at 200 µg/mL [1, 5] was 0 to 80%, the pest or weed control at 50 µg/cm2 [2, 6] was 50 to 100% and the YFM [3, 7] was “A (80–100)”. It also gave a pest or weed control at 50 µg/cm2 [4, 8] of 50 to 100%.
`O=C(CNC(=O)c1cc(NC(=O)[C@H]2[C@H](c3cc(Cl)cc(Cl)c3)C2(Cl)Cl)ccc1Cl)NCCC(F)(F)F` (relative stereo) [F2081, trans-2-Chloro-5-(2,2-dichloro-3-(3,5-dichlorophenyl)cyclopropane-1-carboxamido)-N-(2-oxo-2-(3,3,3-trifluoropropylamino)ethyl)benzamide] was tested, and the pest or weed control at 200 µg/mL [1, 9] was 80 to 100%, the pest or weed control at 50 µg/cm2 [2, 10] was 50 to 100% and the YFM rating ([3]; Yellow Fever Mosquito) was “A (80–100)”. For the same compound, the pest or weed control at 50 µg/cm2 [4, 11] was 50 to 100%.
In the case of `O=C(Nc1ccc(F)c(NC(=O)C(F)(F)F)c1F)c1cc(NC(=O)[C@H]2[C@H](c3ccc(Cl)c(Cl)c3)C2(Cl)Cl)ccc1F` [F1492, 5-((1R,3R)-2,2-Dichloro-3-(3,4-dichlorophenyl)cyclopropane-1-carboxamido)-N-(2,4-difluoro-3-(2,2,2-trifluoroacetamido)phenyl)-2-fluorobenzamide], the pest or weed control at 200 µg/mL [1, 5] is reported as 0 to 80%, the pest or weed control at 50 µg/cm2 [2, 6] is reported as 50 to 100% and the YFM [3, 7] is reported as “A (80–100)”. For the same compound, the pest or weed control at 50 µg/cm2 [4, 8] was 50 to 100%.

From patent publication US20250228239A1, “MOLECULES HAVING PESTICIDAL UTILITY, AND INTERMEDIATES, COMPOSITIONS, AND PROCESSES, RELATED THERETO” (priority 2024, published 2025)
